In the assay the target is T1, SARS2 protease (Severe acute respiratory syndrome coronavirus 2, UniProt P0DTD1).
T1 construct: SARS2 protease was added to a final concentration of 30 nM
In words: SARS-CoV-2 protease inhibition assay (SARS2 FRET protease assay). The class given is biochemical. Particulars: IC50 (μM), SARS2 protease 30 nM, peptide substrate 1.3 μM, 120 minutes at 37° C., compounds 20 μM to 0.075 nM.

Bounds are passed on as bounds.

As usually defined, the IC50 is the concentration needed to halve the response being measured. Read a high IC50 as weaker potency. `CC(C)C[C@H](NC(=O)OC(c1ccccc1)C(C)(C)c1cccc(Cl)c1)C(=O)N[C@H](C=O)C[C@@H]1CCCNC1=O` (stereo partly drawn) [Compound A42]: the IC50 is 9 nM.

Molecule `CCCC[C@H](NC(=O)OC(c1ccccc1)C(C)(C)c1cccc(F)c1)C(=O)N[C@@H](C[C@@H]1CCNC1=O)C(=O)C(=O)NC1CC1` (stereo partly drawn) [Compound A43] came in with an IC50 of 260 nM.

For `CCC(CC)(c1cccc(Cl)c1)C(OC(=O)N[C@@H](CC(C)C)C(=O)N[C@@H](C[C@@H]1CCNC1=O)C(=O)C(=O)NC1CC1)c1ccc(Cl)cc1` (stereo partly drawn) [Compound A44], the 50% inhibitory concentration (IC50) amounted to 740 nM.

With `CC(C)C[C@H](NC(=O)O[C@H](c1ccc(Cl)cc1)C1(c2cccc(Cl)c2)CC1)C(=O)N[C@H](C=O)C[C@@H]1CCNC1=O` [Compound A45], the midpoint of inhibition, the IC50, lay at 20 nM.

`CCC(CC)(c1cccc(Cl)c1)C(OC(=O)N[C@@H](CC(C)C)C(=O)N[C@H](C=O)C[C@@H]1CCNC1=O)c1ccc(Cl)cc1` (stereo partly drawn) [Compound A46] showed an IC50 of 1740 nM.

On to `CC(C)(c1cccc(F)c1)C(OC(=O)N[C@@H](CC1CCCCC1)C(=O)N[C@@H](C[C@@H]1CCNC1=O)C(=O)C(=O)NC1CC1)c1ccccc1` (stereo partly drawn) [Compound A47], for which the IC50 came to 620 nM.

The molecule `CC(C)C[C@H](NC(=O)OC(c1ccc(Cl)cc1)C1(c2cccc(Cl)c2)CCCCC1)C(=O)N[C@H](C=O)C[C@@H]1CCNC1=O` (stereo partly drawn) [Compound A49] came in with an IC50 of 380 nM.

As for `CCNC(=O)C(=O)[C@H](C[C@@H]1CCNC1=O)NC(=O)[C@H](CC1CCCCC1)NC(=O)OC(c1ccccc1)C(F)(F)c1cccc(Cl)c1` (stereo partly drawn) [Compound A50], half-maximal inhibition (IC50) was put at 10 nM.

As to `CCCC[C@H](NC(=O)OC(c1ccccc1)C(F)(F)c1cccc(Cl)c1)C(=O)N[C@@H](C[C@@H]1CCNC1=O)C(=O)C(=O)NC1CC1` (stereo partly drawn) [Compound A51], the midpoint of inhibition, the IC50, lay at 130 nM.

For the molecule `CC(C)C[C@H](NC(=O)OC(c1ccccc1)C1(c2cccc(Cl)c2)CCNCC1)C(=O)N[C@@H](C[C@@H]1CCNC1=O)C(=O)C(=O)NC1CC1` (stereo partly drawn) [Compound A52], the IC50 amounted to 1420 nM.

`CC(C)C[C@H](NC(=O)O[C@@H](c1cccc(Cl)c1)C1(c2cccc(Cl)c2)CCCCC1)C(=O)N[C@H](C=O)C[C@@H]1CCNC1=O` [Compound A54] showed a concentration for half-maximal inhibition (IC50) of 140 nM.

The molecule `CCCC[C@H](NC(=O)OC(c1ccc(F)cc1)C(F)(F)c1cccc(F)c1)C(=O)N[C@H](C=O)C[C@@H]1CCNC1=O` (stereo partly drawn) [Compound A55] had an IC50 of 10 nM.

For the molecule `CCCC[C@H](NC(=O)OC(c1ccccc1)C1(c2cccc(F)c2)CC1)C(=O)N[C@@H](C[C@@H]1CCNC1=O)C(=O)C(=O)NC1CC1` (stereo partly drawn) [Compound A56], the IC50 worked out at 560 nM.

In the case of `CC(C)C[C@H](NC(=O)OC(c1ccccc1)C(C)(C)c1cccc(Cl)c1)C(=O)N[C@@H](C[C@@H]1CCCNC1=O)C(=O)C(=O)NC1CC1` (stereo partly drawn) [Compound A57], the IC50 amounted to 1130 nM.

The molecule `CCCC[C@H](NC(=O)OC(c1ccc(F)cc1)C(F)(F)c1cccc(F)c1)C(=O)N[C@@H](C[C@@H]1CCNC1=O)C(=O)C(=O)NC1CC1` (stereo partly drawn) [Compound A58] had an IC50 of 160 nM.

`CC(C)C[C@H]1C(=O)N[C@H](C[C@@H]2CCNC2=O)[C@H](O)N1C(=O)OC(c1ccccc1)C1(c2cccc(Cl)c2)CCNCC1` (stereo partly drawn) [Compound A59] returned an IC50 of 16200 nM.

`CC(C)C[C@H](NC(=O)O[C@H](c1ccc(Cl)cc1)C1(c2cccc(Cl)c2)CC1)C(=O)N[C@@H](C[C@@H]1CCNC1=O)C(=O)C(=O)NC1CC1` [Compound A60] displayed an IC50 of 1910 nM.

In the case of `CCCC[C@H](NC(=O)O[C@@H](c1ccccc1)C(C)(C)c1cccc(Cl)c1)C(=O)N[C@H](C=O)C[C@@H]1CCNC1=O` [Compound A61], the IC50 is less than 0.1 nM.

In turn, `CCCC[C@H](NC(=O)O[C@H](c1ccccc1)C(C)(C)c1cccc(Cl)c1)C(=O)N[C@H](C=O)C[C@@H]1CCNC1=O` [Compound A62] had an IC50 of 148 nM.

Molecule `CCCC[C@H](NC(=O)OC(c1ccc(F)cc1)C1(c2cccc(F)c2)CC1)C(=O)N[C@H](C=O)C[C@@H]1CCNC1=O` (stereo partly drawn) [Compound A64] gave an IC50 of 3 nM.

The molecule `CC(C)C[C@H](NC(=O)OC(c1cccc(Cl)c1)C1(c2cccc(Cl)c2)CCCCC1)C(=O)N[C@@H](C[C@@H]1CCNC1=O)C(=O)C(=O)NC1CC1` (stereo partly drawn) [Compound A65] yielded an IC50 of 571 nM.

Turning to `CCC(CC)(c1cccc(Cl)c1)C(OC(=O)N[C@@H](CC(C)C)C(=O)N[C@H](C=O)C[C@@H]1CCNC1=O)c1cccc(Cl)c1` (stereo partly drawn) [Compound A66], the IC50 was determined as 259 nM.

The molecule `O=C[C@H](C[C@@H]1CCNC1=O)NC(=O)[C@H](CC1CCCCC1)NC(=O)OC(c1ccccc1)C(F)(F)c1cccc(F)c1` (stereo partly drawn) [Compound A67, 2,2-difluoro-2-(3-fluorophenyl)-1-phenylethyl ((S)-3-cyclohexyl-1-oxo-1-(((S)-1-oxo-3-((S)-2-oxopyrrolidin-3-yl)propan-2-yl)amino)propan-2-yl)carbamate] returned an IC50 of 2 nM.

For the molecule `CCCC[C@H](NC(=O)OC(c1ccccc1)C(C)(C)c1cccc(F)c1)C(=O)N[C@@H](C[C@@H]1CCNC1=O)C(=O)C(=O)NCC` (stereo partly drawn) [Compound A68], the IC50 was 29 nM.

In turn, `CCCC[C@H](NC(=O)OC(c1ccc(F)cc1)C(F)(F)c1cccc(Cl)c1)C(=O)N[C@H](C=O)C[C@@H]1CCNC1=O` (stereo partly drawn) [Compound A69] yielded an IC50 of 8 nM.

As to `CCCC[C@H](NC(=O)OC(c1ccc(F)cc1)C(F)(F)c1cccc(Cl)c1)C(=O)N[C@@H](C[C@@H]1CCNC1=O)C(=O)C(=O)NC1CC1` (stereo partly drawn) [Compound A70], the midpoint of inhibition, the IC50, lay at 28 nM.

`CCCC[C@H](NC(=O)OC(c1ccc(F)cc1)C1(c2cccc(F)c2)CC1)C(=O)N[C@@H](C[C@@H]1CCNC1=O)C(=O)C(=O)NC1CC1` (stereo partly drawn) [Compound A71] displayed an IC50 of 222 nM.

Regarding `CC(C)C[C@H](NC(=O)O[C@@H](c1ccccc1)C(F)(F)c1cccc(Cl)c1)C(=O)N[C@H](C=O)C[C@@H]1CCNC1=O` [Compound A72, 2-(3-chlorophenyl)-2,2-difluoro-1-phenylethyl ((S)-4-methyl-1-oxo-1-(((S)-1-oxo-3-((S)-2-oxopyrrolidin-3-yl)propan-2-yl)amino)pentan-2-yl)carbamate], the IC50 was less than 0.01 nM.

`CCCC[C@H](NC(=O)OC(c1ccccc1)C(F)(F)c1cccc(Cl)c1)C(=O)NC(CC1CC(C)(C)NC1=O)C(=O)C(=O)NC1CC1` (stereo partly drawn) [Compound A73] showed an IC50 of 1390 nM.

The molecule `O=C(N[C@@H](CC1CCCCC1)C(=O)N[C@@H](C[C@@H]1CCNC1=O)C(=O)C(=O)NC1CC1)OC(c1ccccc1)C(F)(F)c1cccc(F)c1` (stereo partly drawn) [Compound A74, 2,2-difluoro-2-(3-fluorophenyl)-1-phenylethyl ((S)-3-cyclohexyl-1-(((S)-4-(cyclopropylamino)-3,4-dioxo-1-((S)-2-oxopyrrolidin-3-yl)butan-2-yl)amino)-1-oxopropan-2-yl)carbamate] showed an IC50 of 186 nM.

As for `O=C(N[C@@H](CC1CCCCC1)C(=O)N[C@@H](C[C@@H]1CCNC1=O)C(O)S(=O)(=O)O)OC(c1ccccc1)C(F)(F)c1cccc(Cl)c1` (stereo partly drawn) [Compound A75], inhibition was half-maximal at 9 nM (IC50).

Molecule `CCCC[C@H](NC(=O)OC(c1ccc(F)cc1)C1(c2cccc(Cl)c2)CC1)C(=O)N[C@@H](C[C@@H]1CCNC1=O)C(=O)C(=O)NC1CC1` (stereo partly drawn) [Compound A76] yielded an IC50 of 53 nM.

As for `CCCC[C@H](NC(=O)OC(c1ccccc1)C(F)(F)c1cccc(F)c1)C(=O)N[C@H](C=O)C[C@@H]1CCNC1=O` (stereo partly drawn) [Compound A77, 2,2-difluoro-2-(3-fluorophenyl)-1-phenylethyl ((S)-1-oxo-1-(((S)-1-oxo-3-((S)-2-oxopyrrolidin-3-yl)propan-2-yl)amino)hexan-2-yl)carbamate], the IC50 came out at 9 nM.

The values are drawn from US20240398757A1 (COCRYSTAL PHARMA, INC., priority 2022, published 2024).
